Drawing on paper PMC6009984, “Synthesis and biological evaluation of benzenesulphonamide-bearing 1,4,5-trisubstituted-1,2,3-triazoles possessing human carbonic anhydrase I, II, IV, and IX inhibitory activity” (Journal of Enzyme Inhibition and Medicinal Chemistry, 2017), this text covers Ki and melting point for 20 molecules.

One data set addresses hCA I (Homo sapiens, UniProt P00915). Kind of data set: stopped-flow CO2 hydrase assay, hCA I.
A further data set concerns the target hCA II (Homo sapiens, UniProt P00918). Kind of data set: stopped-flow CO2 hydrase assay, hCA II. Particulars: Ki (nM) hCA II, cytosolic isoform; mean from three different assays, stopped flow technique, errors ±5–10%.
For another data set, the target named is hCA IV (Homo sapiens, UniProt P22748). The data set is described as follows: stopped-flow CO2 hydrase assay, hCA IV.
A further data set has as its target hCA IX (Homo sapiens, UniProt Q16790). Kind of data set: stopped-flow CO2 hydrase assay, hCA IX.

Sequence of hCA IV (P22748 19-312): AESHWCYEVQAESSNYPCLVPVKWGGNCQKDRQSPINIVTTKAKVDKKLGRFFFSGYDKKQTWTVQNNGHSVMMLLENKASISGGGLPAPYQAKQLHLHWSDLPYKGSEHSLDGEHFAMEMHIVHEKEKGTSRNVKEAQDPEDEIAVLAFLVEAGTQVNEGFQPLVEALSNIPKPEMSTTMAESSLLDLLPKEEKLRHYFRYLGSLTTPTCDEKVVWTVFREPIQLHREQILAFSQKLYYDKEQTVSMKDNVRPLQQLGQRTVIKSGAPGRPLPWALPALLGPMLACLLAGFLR
Sequence of hCA I (P00915 whole entry, canonical isoform): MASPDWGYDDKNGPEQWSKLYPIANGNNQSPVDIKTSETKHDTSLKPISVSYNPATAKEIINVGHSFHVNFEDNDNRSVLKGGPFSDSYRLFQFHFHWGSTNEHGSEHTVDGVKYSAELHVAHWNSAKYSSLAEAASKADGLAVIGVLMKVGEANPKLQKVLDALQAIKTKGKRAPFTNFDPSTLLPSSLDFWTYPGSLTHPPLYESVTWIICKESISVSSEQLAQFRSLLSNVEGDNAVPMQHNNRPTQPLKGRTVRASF

The molecule `Cc1c(C(N)=O)nnn1-c1ccc(S(N)(=O)=O)cc1` [Compound 6a, 1-[4-(Aminosulfonyl)phenyl]-5-methyl-1H-1,2,3-triazole-4-carboxamide] gave a melting point of 314 to 316 °C. At hCA I, this molecule returned an inhibition constant (Ki) of 8.3 nM. Moreover, the inhibition constant (Ki) at hCA II is 1.9 nM. Moreover, the affinity at hCA IV, expressed as Ki, was 212 nM. In addition, the affinity on hCA IX, expressed as Ki, was 9.5 nM.
In turn, `CCOC(=O)c1nnn(-c2ccc(S(N)(=O)=O)cc2)c1-c1ccc2ccccc2c1` [Compound 4d, Ethyl 1-[4-(aminosulfonyl)phenyl]-5-(2-naphthyl)-1H-1,2,3-triazole-4-carboxylate] displayed a melting point of 180 °C. The same molecule yielded an inhibition constant Ki on hCA I of 68.2 nM. Affinity on hCA II was put at a Ki of 5.8 nM. At hCA IV, the affinity, expressed as Ki, was 5 nM. On hCA IX, this molecule yielded a Ki of 7.1 nM.
Regarding `CCOC(=O)c1nnn(-c2ccc(S(N)(=O)=O)cc2)c1-c1ccc(OC)cc1` [Compound 4c, Ethyl 1-[4-(aminosulfonyl)phenyl]-5-(4-methoxyphenyl)-1H-1,2,3-triazole-4-carboxylate], the melting point is 176 °C. Further, the affinity on hCA I corresponds to a Ki of 63 nM. On hCA II, this molecule had a Ki of 6.1 nM. In addition, at hCA IV, the inhibitory constant (Ki) turned out to be 4.5 nM. This molecule came in with an inhibition constant Ki on hCA IX of 40 nM.
The molecule `Cc1c(C(=O)O)nnn1-c1ccc(S(N)(=O)=O)cc1` [Compound 5a, 1-[4-(Aminosulfonyl)phenyl]-5-methyl-1H-1,2,3-triazole-4-carboxylic acid] showed a melting point of 198 °C. Moreover, the affinity at hCA I, expressed as Ki, was 9.6 nM. Further, on hCA II, the inhibition constant (Ki) is 1.6 nM. The molecule further gave a Ki at hCA IV of 269 nM. At hCA IX, this molecule gave a Ki of 8.5 nM.
In the case of `COc1ccc(-c2c(CO)nnn2-c2ccc(S(N)(=O)=O)cc2)cc1` [Compound 8c, 4-(4-(Hydroxymethyl)-5-(4-methoxyphenyl)-1H-1,2,3-triazol-1-yl)benzenesulphonamide], the melting point lay in the range of 180 to 182 °C. The molecule also gave a Ki at hCA I of 812 nM. The same molecule registered an inhibition constant (Ki) on hCA II of 4 nM. At hCA IV, this molecule had an inhibitory constant (Ki) of 1.9 nM. This molecule came in with a Ki on hCA IX of 5.8 nM.
`CCOC(=O)c1nnn(-c2ccc(S(N)(=O)=O)cc2)c1-c1ccccc1` [Compound 4b, Ethyl 1-[4-(aminosulfonyl)phenyl]-5-phenyl-1H-1,2,3-triazole-4-carboxylate] registered a melting point of 184 °C. The molecule further registered a Ki on hCA I of 246 nM. The molecule further displayed an inhibition constant Ki on hCA II of 6 nM. Besides, on hCA IV, the Ki amounted to 5.1 nM. This molecule also had a Ki on hCA IX of 9.5 nM.
`NNC(=O)c1nnn(-c2ccc(S(N)(=O)=O)cc2)c1-c1ccc2ccccc2c1` [Compound 7d, 4-[4-(Hydrazinocarbonyl)-5-(2-naphthyl)-1H-1,2,3-triazol-1-yl]benzenesulphonamide] had a melting point of 156 °C. This molecule gave an inhibitory constant (Ki) at hCA I of 82.5 nM. Also, the Ki at hCA II turned out to be 1.6 nM. At hCA IV, this molecule gave a Ki of 2 nM. Besides, the Ki on hCA IX was 7.2 nM.
In the case of `NS(=O)(=O)c1ccc(-n2nnc(C(=O)O)c2-c2ccccc2)cc1` [Compound 5b, 1-[4-(Aminosulfonyl)phenyl]-5-phenyl-1H-1,2,3-triazole-4-carboxylic acid], the Ki at hCA I was found to be 646 nM; at hCA II, 97.9 nM; on hCA IV it was 55.3 nM; on hCA IX, 45.9 nM.
Turning to `COc1ccc(-c2c(C(=O)NN)nnn2-c2ccc(S(N)(=O)=O)cc2)cc1` [Compound 7c, 4-[4-(Hydrazinocarbonyl)-5-(4-methoxyphenyl)-1H-1,2,3-triazol-1-yl]benzenesulphonamide], the melting point was in the range of 170 to 172 °C. This molecule also displayed a Ki on hCA I of 91.2 nM. Further, on hCA II, the inhibition constant Ki came out at 5.6 nM. Moreover, on hCA IV, the Ki worked out at 4 nM. Besides, the affinity at hCA IX, expressed as Ki, was 8.1 nM.
Turning to `NC(=O)c1nnn(-c2ccc(S(N)(=O)=O)cc2)c1-c1ccccc1` [Compound 6b, 1-[4-(Aminosulfonyl)phenyl]-5-phenyl-1H-1,2,3-triazole-4-carboxamide], the melting point was found to be 210 °C. This molecule displayed an inhibitory constant (Ki) on hCA I of 69.1 nM. Also, the inhibitory constant (Ki) at hCA II was 9.1 nM. Besides, the Ki on hCA IV was 1.4 nM. At hCA IX, this molecule gave a Ki of 28.3 nM.
Regarding `NS(=O)(=O)c1ccc(-n2nnc(C(=O)O)c2-c2ccc3ccccc3c2)cc1` [Compound 5d, 1-[4-(Aminosulfonyl)phenyl]-5-(2-naphthyl)-1H-1,2,3-triazole-4-carboxylic acid], the melting point lay in the range of 198 to 200 °C. At hCA I, this molecule displayed a Ki of 56.2 nM. Further, the Ki at hCA II came out at 8.9 nM. The same molecule yielded an inhibition constant (Ki) on hCA IV of 4.1 nM. This molecule also came in with an inhibition constant (Ki) at hCA IX of 4.2 nM.
`COc1ccc(-c2c(C(N)=O)nnn2-c2ccc(S(N)(=O)=O)cc2)cc1` [Compound 6c, 1-[4-(Aminosulfonyl)phenyl]-5-(4-methoxyphenyl)-1H-1,2,3-triazole-4-carboxamide]: the melting point was 280 to 282 °C. Also, the Ki at hCA I is 874 nM. Besides, at hCA II, the inhibition constant (Ki) is 6.2 nM. This molecule yielded an inhibitory constant (Ki) at hCA IV of 1.7 nM. Also, at hCA IX, the inhibitory constant (Ki) came out at 6.8 nM.
For the molecule `CCOC(=O)c1nnn(-c2ccc(S(N)(=O)=O)cc2)c1C` [Compound 4a, Ethyl 1-[4-(aminosulfonyl)phenyl]-5-methyl-1H-1,2,3-triazole-4-carboxylate], the Ki was found to be 9.1 nM at hCA I, 3.2 nM on hCA II, 3.5 nM at hCA IV and 6.6 nM at hCA IX.
Take `NS(=O)(=O)c1ccc(-n2nnc(CO)c2-c2ccc3ccccc3c2)cc1` [Compound 8d, 4-(4-(Hydroxymethyl)-5-(2-naphthyl)-1H-1,2,3-triazol-1-yl)benzenesulphonamide]: the melting point lay within 212 to 214 °C. Besides, the affinity at hCA I, expressed as Ki, was 214 nM. In addition, the affinity at hCA II, expressed as Ki, was 8.1 nM. This molecule came in with a Ki on hCA IV of 1.9 nM. At hCA IX, the Ki came to 7.8 nM.
Regarding `Cc1c(CO)nnn1-c1ccc(S(N)(=O)=O)cc1` [Compound 8a, 4-(4-(Hydroxymethyl)-5-methyl-1H-1,2,3-triazol-1-yl)benzenesulphonamide], the melting point was 184 °C. On hCA I, this molecule showed a Ki of 354 nM. At hCA II, this molecule had an inhibition constant (Ki) of 58.9 nM. Moreover, on hCA IV, affinity was put at a Ki of 360 nM. Besides, at hCA IX, the inhibitory constant (Ki) is 30.6 nM.
The corresponding values for `NC(=O)c1nnn(-c2ccc(S(N)(=O)=O)cc2)c1-c1ccc2ccccc2c1` [Compound 6d, 1-[4-(Aminosulfonyl)phenyl]-5-(2-naphthyl)-1H-1,2,3-triazole-4-carboxamide] are 278 to 280 °C, 772 nM, 6 nM, 4 nM and 6.7 nM.
As to `NS(=O)(=O)c1ccc(-n2nnc(CO)c2-c2ccccc2)cc1` [Compound 8b, 4-(4-(Hydroxymethyl)-5-phenyl-1H-1,2,3-triazol-1-yl)benzenesulphonamide], the melting point is 174 to 176 °C. Further, at hCA I, the Ki came out at 78.9 nM. This molecule also displayed a Ki on hCA II of 9.4 nM. For the same molecule, affinity on hCA IV was put at a Ki of 8.4 nM. The molecule also returned an inhibitory constant (Ki) at hCA IX of 58.7 nM.
`NNC(=O)c1nnn(-c2ccc(S(N)(=O)=O)cc2)c1-c1ccccc1` [Compound 7b, 4-[4-(Hydrazinocarbonyl)-5-phenyl-1H-1,2,3-triazol-1-yl]benzenesulphonamide] returned a melting point of 206 °C. Besides, the inhibition constant Ki on hCA I turned out to be 73.7 nM. Also, the Ki on hCA II worked out at 38 nM. On hCA IV, this molecule displayed a Ki of 22.7 nM. The affinity at hCA IX corresponds to a Ki of 26.1 nM.
For `Cc1c(C(=O)NN)nnn1-c1ccc(S(N)(=O)=O)cc1` [Compound 7a, 4-[4-(Hydrazinocarbonyl)-5-methyl-1H-1,2,3-triazol-1-yl]benzenesulphonamide], the Ki stood at 15.1 nM at hCA I, 7.6 nM on hCA II, 228 nM on hCA IV and 9.3 nM at hCA IX.
Take `COc1ccc(-c2c(C(=O)O)nnn2-c2ccc(S(N)(=O)=O)cc2)cc1` [Compound 5c, 1-[4-(Aminosulfonyl)phenyl]-5-(4-methoxyphenyl)-1H-1,2,3-triazole-4-carboxylic acid]: the melting point lay within 148 to 150 °C. This molecule registered an inhibition constant Ki on hCA I of 489 nM. Further, the inhibitory constant (Ki) on hCA II was 9 nM. The same molecule came in with a Ki on hCA IV of 2.4 nM. The same molecule had a Ki at hCA IX of 42.3 nM.

As a reminder, the Ki is the dissociation constant of the complex between target and ligand, obtained from inhibition or displacement. The term melting point denotes the temperature of the solid-liquid transition.
